Measurements from patent US9296694B2, “Azacyclic compounds” (ACADIA Pharmaceuticals Inc., priority 2000, dated 2016).
Counter-ions that a name gives are not always drawn.

Key:
Assay in all cases: R-SAT selectivity profile of 26HCH16D
Format in all cases: cell-based
5HT1A [1] = molecular target: T1, 5HT1A (Homo sapiens, UniProt P08908); conditions: 4 doses in duplicate (3, 30, 300, 3000 nM)
T1 construct: expressed in transfected cells; host or cells: NIH3T3, pSI vector
T1 sequence (P08908 1-422): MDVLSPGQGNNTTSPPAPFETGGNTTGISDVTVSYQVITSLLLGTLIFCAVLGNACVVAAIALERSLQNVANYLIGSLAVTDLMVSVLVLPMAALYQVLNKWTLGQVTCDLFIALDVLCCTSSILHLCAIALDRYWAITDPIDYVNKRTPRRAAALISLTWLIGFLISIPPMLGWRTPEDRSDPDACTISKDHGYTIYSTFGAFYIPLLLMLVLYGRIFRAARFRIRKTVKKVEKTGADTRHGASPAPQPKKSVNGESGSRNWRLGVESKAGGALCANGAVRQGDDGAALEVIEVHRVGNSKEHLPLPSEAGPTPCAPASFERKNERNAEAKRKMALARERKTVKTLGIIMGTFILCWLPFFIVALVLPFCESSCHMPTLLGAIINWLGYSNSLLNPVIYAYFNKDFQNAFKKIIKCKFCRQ
Description: (§1) The functional receptor assay, Receptor Selection and Amplification Technology (R-SAT), was used (with minor modifications from that previously described U.S. Pat. No. 5,707,798) to screen compounds for efficacy at the 5-HT2A receptor. Briefly, NIH3T3 cells were grown in 96 well tissue culture plates to 70-80% confluence. Cells were transfected for 12-16 hours with plasmid DNAs using superfect (Qiagen Inc.) as per manufacture's protocols. R-SAT's were generally performed with 50 ng/well of receptor and 20 ng/well of Beta-galactosidase plasmid DNA. All receptor and G-protein constructs used were in the pSI mammalian expression vector (Promega Inc) as described in U.S. Pat. No. 5,707,798. The 5HT2A receptor gene was amplified by nested PCR from brain cDNA using the oligodeoxynucleotides based on the published sequence (see Saltzman et. al. Biochem. Biophys. Res. Comm. 181:1469-78 (1991)). Large-scale transfections, cells were transfected for 12-16 hours, then trypsinized and frozen in DMSO. Frozen cells were later thawed, plated at 10,000-40,000 cells per well of a 96 well plate that contained drug. With both methods, cells were then grown in a humidified atmosphere with 5% ambient CO2 for five days. Media was then removed from the plates and marker gene activity was measured by the addition of the beta-galactosidase substrate ONPG (in PBS with 5% NP-40). The resulting colorimetric reaction was measured in a spectrophotometric plate reader (Titertek Inc.) at […]. All data were analyzed using the computer program XLFit (IDBSm). Efficacy is the percent maximal repression compared to repression by a control compound (ritanserin in the case of 5HT2A). pIC50 is the negative of the log(IC50), where IC50 is the calculated concentration in Molar that produces 50% maximal repression.
(§2) R-SAT assays (as described in Example 42) were carried out with cells transfected with receptors (listed below) to determine the receptor selectivity profile for compound 26HCH16D. 5HT2A inverse agonist data (IC50 nM; % efficacy) were derived from detailed dose response curves (7 points in triplicate).

alpha1a/D = molecular target: T2, alpha1a/D (Rattus norvegicus, UniProt P23944); conditions: 4 doses in duplicate (3, 30, 300, 3000 nM)
T2 construct: expressed in transfected cells; host or cells: NIH3T3, pSI vector
T2 sequence (P23944 1-561): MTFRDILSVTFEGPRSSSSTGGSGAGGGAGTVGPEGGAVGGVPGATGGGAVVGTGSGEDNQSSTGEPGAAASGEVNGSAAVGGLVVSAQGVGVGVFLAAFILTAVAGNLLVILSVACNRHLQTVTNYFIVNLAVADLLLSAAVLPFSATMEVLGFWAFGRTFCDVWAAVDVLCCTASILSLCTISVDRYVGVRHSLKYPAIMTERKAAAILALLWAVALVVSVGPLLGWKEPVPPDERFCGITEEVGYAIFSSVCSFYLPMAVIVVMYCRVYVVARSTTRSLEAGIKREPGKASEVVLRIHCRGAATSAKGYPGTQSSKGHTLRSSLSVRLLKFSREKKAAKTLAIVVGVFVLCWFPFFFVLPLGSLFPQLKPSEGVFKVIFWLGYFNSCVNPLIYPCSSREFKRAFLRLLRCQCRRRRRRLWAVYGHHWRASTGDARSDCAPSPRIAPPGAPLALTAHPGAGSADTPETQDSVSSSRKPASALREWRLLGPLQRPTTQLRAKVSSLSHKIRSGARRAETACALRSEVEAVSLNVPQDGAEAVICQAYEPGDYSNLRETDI
Description: as §1, §2

H1 = molecular target: T3, H1 (Homo sapiens, UniProt P35367)
T3 construct: expressed in transfected cells; host or cells: NIH3T3, pSI vector
T3 sequence (P35367 whole entry): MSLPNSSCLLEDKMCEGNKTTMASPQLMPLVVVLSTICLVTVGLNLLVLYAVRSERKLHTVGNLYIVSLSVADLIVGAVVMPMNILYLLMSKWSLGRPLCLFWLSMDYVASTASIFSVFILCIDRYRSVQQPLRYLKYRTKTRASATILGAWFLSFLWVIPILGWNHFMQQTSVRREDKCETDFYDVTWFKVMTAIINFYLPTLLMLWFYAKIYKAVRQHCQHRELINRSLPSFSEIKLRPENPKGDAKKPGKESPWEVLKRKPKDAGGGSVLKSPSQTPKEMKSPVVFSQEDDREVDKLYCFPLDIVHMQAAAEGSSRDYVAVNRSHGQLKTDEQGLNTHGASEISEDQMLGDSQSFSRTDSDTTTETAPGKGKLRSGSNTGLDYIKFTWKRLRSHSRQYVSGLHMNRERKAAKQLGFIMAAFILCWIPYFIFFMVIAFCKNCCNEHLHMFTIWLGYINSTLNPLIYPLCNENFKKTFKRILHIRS
Description: as §1, §2

5HT1A [2] = molecular target: T4, 5HT1A (Rattus norvegicus, UniProt P19327); conditions: Antagonist; 4 doses in duplicate (3, 30, 300, 3000 nM)
T4 construct: expressed in transfected cells; host or cells: NIH3T3, pSI vector
T4 sequence (P19327 1-422): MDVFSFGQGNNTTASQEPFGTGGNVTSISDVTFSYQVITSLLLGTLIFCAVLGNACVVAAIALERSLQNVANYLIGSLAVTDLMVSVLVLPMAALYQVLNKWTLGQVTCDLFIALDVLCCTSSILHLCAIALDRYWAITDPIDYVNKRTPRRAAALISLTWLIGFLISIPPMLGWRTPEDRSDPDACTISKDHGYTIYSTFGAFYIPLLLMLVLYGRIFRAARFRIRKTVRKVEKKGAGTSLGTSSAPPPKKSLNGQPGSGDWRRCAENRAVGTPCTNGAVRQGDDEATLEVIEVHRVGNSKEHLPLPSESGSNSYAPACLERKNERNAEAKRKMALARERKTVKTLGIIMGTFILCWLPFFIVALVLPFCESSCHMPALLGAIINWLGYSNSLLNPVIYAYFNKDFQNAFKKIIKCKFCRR
Description: as §1, §2

With `Cc1ccc(CN(C(=O)NCc2ccccc2)C2CCN(Cc3ccccc3)CC2)cc1` [Compound 26HCH16D, N-((4-Methylphenyl)methyl)-N-(1-(phenylmethyl)piperidin-4-yl)-N′-phenylmethylcarbamide hydrochloride] the Efficacy (5HT1A [1]; Agonist) was “nr (nr=activity less than 30% at all doses tested (3, 30, 300, 3000 nM), therefore EC50/IC50 greater than 3000 nM))”, the Efficacy (5HT1A [1]; Antagonist) was “nr (nr=activity less than 30% at all doses tested (3, 30, 300, 3000 nM), therefore EC50/IC50 greater than 3000 nM))” and the Efficacy (alpha1a/D; Agonist) was “nr (nr=activity less than 30% at all doses tested (3, 30, 300, 3000 nM), therefore EC50/IC50 greater than 3000 nM))”. The Efficacy (alpha1a/D; Antagonist) was “nr (nr=activity less than 30% at all doses tested (3, 30, 300, 3000 nM), therefore EC50/IC50 greater than 3000 nM))”, the Efficacy (H1; Agonist, 4 doses in duplicate (3, 30, 300, 3000 nM)) was “nr (nr=activity less than 30% at all doses tested (3, 30, 300, 3000 nM), therefore EC50/IC50 greater than 3000 nM))” and the “initial concentration at which at least 30% efficacy observed” value (H1; Antagonist, 4 dose profiling) was 3000 nM. For the same molecule, the Efficacy (5HT1A [2]) was “nr (nr=activity less than 30% at all doses tested (3, 30, 300, 3000 nM), therefore EC50/IC50 greater than 3000 nM))”.
